From patent publication US20250295717A1, “RE[…] OF R[…] VIRUS, COMBINATION, AND APPLICATION THEREOF” (NEUREGEN BIOTHERAPEUTICS (SHANGHAI) CO. LTD, priority 2022, published 2025)

Key:
[1] = system: glioma cells (U87-luc) implanted into the brain; experiment: Brain orthotopic glioma model U87-luc (Example 6); type: in vivo, mouse; details: Ad5-AN 1×10^9 PFU every four days, three doses, TMZ 15 mg/kg, PBS group 22.3 days
Protocol: For the orthotopic glioma model, 7-week-old NOD-scid mice were used. Human glioma cells, either induced with […] or not induced, were centrifuged to remove the supernatant, resulting in a cell density of approximately 2.5×10^5 cells/μL. A total of 2 μL (5×10^5 cells) was implanted into the striatum of each mouse. After three weeks, histological analysis or viral injection was performed, followed by immunohistochemical detection.
In this example, glioma cells (U87-luc) were first implanted into the brain (5×10^5 cells). After 7 days of implantation, the mice were grouped for treatment, with the PBS group serving as the control. The Ad5-AN group received a dose of 1×10^9 PFU, while the temozolomide (TMZ) gavage group received 15 mg/kg once daily for five days, followed by two days off. Additionally, there was a combination treatment group of Ad5-AN and temozolomide, with Ad5-AN administered every four days for a total of three doses.

[2] = system: human glioma U87 cells subcutaneous implantation; experiment: Subcutaneous U87 glioma model, combination with temozolomide (Example 5); type: in vivo, mouse
Protocol: (§1) For the subcutaneous glioma model, human U87 glioma cells were cultured, and during the logarithmic growth phase, they were inoculated into the axillae of nude mice. After two passages, the tumor tissue was collected under sterile conditions, and the tumor mass was cut into uniform small pieces approximately the size of grains of rice, which were then inoculated subcutaneously in the axillae of nude mice using an implantation needle. Once the tumor grew to approximately 100 mm^3, the mice were randomly grouped, and the treatment began. All samples were dissolved in PBS, with an injection volume of 50 μL/tumor. The length and width of the tumor were measured every three days, and the tumor volume was calculated using the formula: […]
In this example, a subcutaneous implantation model using human glioma U87 cells in BALB/c nu/nu mice was adopted. U87 human glioblastoma cells were inoculated into the armpits of the nude mice during the logarithmic growth phase. When the tumor grew to approximately 100 mm^3, appropriate tumor-bearing mice were randomly grouped. After grouping, treatment commenced, with the PBS group serving as the control. The Ad5-AN group received a dose of 1×10^9 PFU, while the temozolomide (TMZ) gavage group received 15 mg/kg once daily for five days, followed by two days off. Additionally, there was a combination treatment group of Ad5-AN and temozolomide (Ad5-AN+TMZ), with Ad5-AN administered every two days for a total of five doses. Tumor volume was measured every three days, and later, the animals were euthanized to weigh the tumors and perform biochemical and molecular analyses.

[3] = system: human glioblastoma U87 ectopic implantation; experiment: Human glioblastoma U87 BALB/CA-nu mouse ectopic implantation model, recombinant HSV (Example 8); type: in vivo
Protocol: as §1
In this implementation, type 1 herpes simplex virus (HSV) was used as an oncolytic virus vector, with fragments from human Ascl1 (SEQ ID No. 11) and the coding sequence (CDS) of human Ngn2 (SEQ ID No. 15) inserted to achieve efficient co-expression of Ascl1 and Ngn2. After packaging and purifying the recombinant HSV, tests were conducted using a human glioblastoma U87 BALB/CA-nu mouse ectopic implantation model. […] Tumor volume was measured every three days, and later, the animals were euthanized to weigh the tumors and perform biochemical and molecular analyses. […]

human glioma tissue PDX = experiment: Patient-derived tumor xenograft (PDX) model from human glioma tissue (Example 7); type: in vivo, mouse
Protocol: To further validate the combined effect of oncolytic viruses and redifferentiation therapy, this implementation was tested in a patient-derived tumor xenograft (PDX) model constructed from human glioma tissue. PDX tissues were inoculated into the armpits of nude mice for passaging, and when they reached the logarithmic growth phase, they were re-inoculated into the armpits of nude mice. When the tumor grew to approximately 100 mm^3, appropriate tumor-bearing mice were randomly grouped. After grouping, treatment commenced, with the PBS group serving as the control. The Ad5-AN group received a dose of 1×10^9 PFU, while the temozolomide (TMZ) gavage group received 15 mg/kg once daily for five days, followed by two days off. Additionally, there was a combination treatment group of Ad5-AN and temozolomide, with Ad5-AN administered every two days for a total of five doses. Tumor volume was measured every three days, and later, the animals were euthanized to weigh the tumors and perform biochemical and molecular analyses.

[4] = U87 subcutaneous, extended experiment

## Cn1nnc2c(C(N)=O)ncn2c1=O [temozolomide]
[1]
  average survival: 56.8 days
[2]; [4]
  time at which tumor growth approached 2000 mm^3: around 60 days
  time at which tumors gradually relapsed post-treatment: around 35 days
[2]; mice with recurrence / seven mice, FIG. 5
  tumor recurrence after 56 days: 7/7
[3]; after 10 days of treatment, HSV 2×10^6 PFU every two days, five doses, TMZ 15 mg/kg
  tumor volume decrease: 73.6%
[3]; after two months
  tumor recurrence: 6/6
Human glioma tissue PDX
  time at which tumors gradually relapsed post-treatment: around 45 days
  time at which tumors reached nearly 2000 mm^3: around 72 days
Human glioma tissue PDX; around 45 days post-treatment
  tumors relapsed and began to regrow: 6/6
